Experimental findings from ChEMBL document CHEMBL1240359, “Micafungin concentrations from brain tissue and pancreatic pseudocyst fluid” (Antimicrob Agents Chemother, 2010) are described below.

A short description of data set [1]: Drug level in rabbit brain at 1 mg/kg/day, iv for 8 days measured 30 mins after last dose. Details: route intravenous. To be noted: read-out: Drug uptake. The format is ADME, organism-based, Oryctolagus cuniculus.
Data set [2] in a line: Drug level in rabbit brain at 0.5 mg/kg/day, iv for 8 days measured 30 mins after last dose. The format is ADME, organism-based, Oryctolagus cuniculus. Conditions: read-out: Drug uptake. Details: route intravenous.
The nature of data set [3]: Drug level in rabbit lung at 0.5 to 2 mg/kg/day, iv for 8 days measured 30 mins after last dose. To be noted: read-out: Drug uptake. Details: route intravenous. The format is ADME, organism-based, Oryctolagus cuniculus.
Data set [4] can be described thus: Drug level in rabbit brain at 2 mg/kg/day, iv for 8 days measured 30 mins after last dose. To be noted: read-out: Drug uptake. The data set is classed as ADME, organism-based, Oryctolagus cuniculus. Details: route intravenous.
The subject of another data set is Candida albicans. The data set can be described thus: Antimicrobial activity against Candida albicans infected in neutropenic rabbit model of disseminated candidiasis assessed as reduction in brain microbial burden at 0.25 to 2 mg/kg/day for 10 days. The format is functional, organism-based.
A short description of data set [5]: Drug level in pancreatic pseudocyst fluid of patient with invasive candidiasis measured 24 hrs post last dose by HPLC. To be noted: human, read-out: Drug uptake. The format is ADME.
Data set [6] is described as follows: Drug level in brain of patient with invasive candidiasis measured 23 hrs post last dose by HPLC. The data set is classed as ADME, tissue-based. To be noted: human, read-out: Drug uptake.
Data set [7] in a line: Plasma concentration in patient with invasive candidiasis measured 23 hrs post last dose by HPLC. The data set is classed as ADME, organism-based. Conditions: human.
A short description of data set [8]: Drug level in rabbit kidney at 0.5 to 2 mg/kg/day, iv for 8 days measured 30 mins after last dose. The format is ADME, organism-based, Oryctolagus cuniculus. Also noted: route intravenous. To be noted: read-out: Drug uptake.

Calls of active or inactive are those of the source. No cut-off for these calls is given here. Starred links: 1 amine or outer side, 2 acyl side, 3 side chain; linkers in the order of their positions; H or OH if unused. Positions of bridges follow the written chain, without caps; N, C: chain ends. Non-standard residues stand in square brackets, D forms with d. Residues, ends and D or L forms follow the SMILES beside them. *: point of attachment. hTyr(3S-OH,4S-OH,3'-OSO3H) = N[C@H](C(=O)O)[C@H](O)[C@@H](O)c1ccc(O)c(OS(=O)(=O)O)c1; Orn(4R-OH,5R-OH) = O=C([C@H](C[C@@H](O)[C@@H](O)N[*:3])N[*:1])[*:2]; Pro(3S-OH,4S-Me) = C[C@H]1CN[C@H](C(=O)O)[C@H]1O; X1 = CCCCCOc1ccc(-c2cc(-c3ccc(C(=O)*)cc3)no2)cc1; Gln(3R-OH) = NC(=O)C[C@@H](O)[C@H](N)C(=O)O; Hyp = O=C(O)[C@@H]1C[C@@H](O)CN1

With `CCCCCOc1ccc(-c2cc(-c3ccc(C(=O)N[C@H]4C[C@@H](O)[C@@H](O)NC(=O)[C@@H]5[C@@H](O)[C@@H](C)CN5C(=O)[C@H]([C@H](O)CC(N)=O)NC(=O)[C@H]([C@H](O)[C@@H](O)c5ccc(O)c(OS(=O)(=O)O)c5)NC(=O)[C@@H]5C[C@@H](O)CN5C(=O)[C@H]([C@@H](C)O)NC4=O)cc3)no2)cc1` [MICAFUNGIN] (X1-[Orn(4R-OH,5R-OH)]T[Hyp][hTyr(3S-OH,4S-OH,3'-OSO3H)][Gln(3R-OH)][Pro(3S-OH,4S-Me)]; lactam 1-C), the concentration at 0.5 h is 100 ng/g in [1]; 80 ng/g in data set [2]; 2260 ng/g in data set [3]; 180 ng/g in data set [4]; 1400 ng/g in [8]. Moreover, in the data set on Candida albicans, the inhibition entry is “Active”. For the same molecule, the concentration at 24 h in data set [5] is 380 ng/mL. Further, the results for the concentration at 23 h in data set [6] and in [7] were 280 ng/mL and 1580 ng/mL, respectively.
